Results taken from PMC8466554, “Heteroaryl-Ethylenes as New Lead Compounds in the Fight against High Priority Bacterial Strains” (Antibiotics, 2021).
Where two headings read alike, the source gives them in different places.

Assays:
CaCo-2 cells = assay: MTT cytotoxicity assay; assay type: cell-based, human; conditions: 24 h of incubation relative to untreated controls
Method: To evaluate the biological activity of the PBn series, compounds were screened for toxicity against the colon-rectal cancer cell line CaCo-2 (ATCC HTB-37). These human cancer cells were treated with solutions of the compounds at decreasing concentrations, starting from 100 μM up to 0.01 μM. The reference compound used for these assays was 5-Fluorouracil (5-Fu), a pyrimidine analogue belonging to the family of antimetabolite. […] Briefly, human colorectal adenocarcinoma cells (CaCo-2 HTB-37^TM Colorectal Adenocarcinoma Human, American Type Culture Collection, Manassas, VA, USA) were grown in Dulbecco’s MEM (DMEM) with 10% heat-inactivated fetal bovine serum, 2 mM L-Alanyl-L-Glutamine, penicillin-streptomycin (50 units-50 μg for mL) and incubated at 37 °C in a humidified atmosphere of 5% CO2, 95% air. CaCo-2 cells were plated in 96 well pates and incubated at 37 °C. The PBn series compounds and 5-FU were prepared as a 1 mM solution in 10 mL with 0.01% DMSO. Then, 24 h after plating, cells were treated with 20 μL of each solution. Untreated cells were used as controls. […] The results were read on a multiwell scanning spectrophotometer (AF2200 plate reader, Eppendorf, Milan, Italy), using a wavelength of 569 nm.

S.aureus USA300-CAMRSA = assay: MIC and MBC microtiter plate assay; assay type: cell-based, Staphylococcus aureus
E. coli ATCC25922 = assay: MIC and MBC microtiter plate assay, also with different inocula; assay type: cell-based, Escherichia coli
[1] = system: E. faecalis ATCC29212-VSE; assay: MIC and MBC microtiter plate assay; assay type: cell-based
[2] = system: E. faecalis ATCC51299-VRE; assay: MIC and MBC microtiter plate assay, also with different inocula; assay type: cell-based; conditions: E. faecalis ATCC51299-VRE
S.aureus ATCC29213-MSSA = assay: MIC and MBC microtiter plate assay; assay type: cell-based, Staphylococcus aureus
[3] = system: K. pneumoniae ATCC BAA-2814; assay: MIC microtiter plate assay; assay type: cell-based, Klebsiella pneumoniae; conditions: K. pneumoniae ATCC BAA-2814 (MDR strain)
A. baumannii ATCC17978 = assay: MIC and MBC microtiter plate assay, also with different inocula; assay type: cell-based, Acinetobacter baumannii; conditions: A. baumannii ATCC17978
S.aureus ATCC12598-MSSA = assay: as above; assay type: cell-based, Staphylococcus aureus; conditions: S.aureus ATCC12598-MSSA
K. pneumoniae ATCC700603 = assay: MIC microtiter plate assay; assay type: cell-based, Klebsiella pneumoniae
P. aeruginosa ATCC27853 = assay: MIC microtiter plate assay; assay type: cell-based, Pseudomonas aeruginosa
S.aureus Mu50-VISA = assay: MIC and MBC microtiter plate assay; assay type: cell-based, Staphylococcus aureus

SMILES	IC50 (CaCo-2 cells)	MIC (S.aureus USA300-CAMRSA)	MIC (S.aureus USA300-CAMRSA; value in brackets)	MIC (E. coli ATCC25922)	MIC (E. coli ATCC25922; value in brackets)	MIC [1]	MIC ([1]; value in brackets)	MIC [2]	MIC ([2]; value in brackets)	MIC (S.aureus ATCC29213-MSSA)	MIC (S.aureus ATCC29213-MSSA; value in brackets)	MIC (A. baumannii ATCC17978)	MIC (A. baumannii ATCC17978; value in brackets)	MIC (S.aureus ATCC12598-MSSA)	MIC (S.aureus ATCC12598-MSSA; value in brackets)	MIC (K. pneumoniae ATCC700603)	MIC (K. pneumoniae ATCC700603; value in brackets)	MIC (P. aeruginosa ATCC27853)	MIC (P. aeruginosa ATCC27853; value in brackets)	MIC (S.aureus Mu50-VISA)	also measured
O=c1[nH]cc(F)c(=O)[nH]1 [5-FU, 5-Fluorouracil, reference compound]	27400 nM																				IC50 (CaCo-2 cells; Homo sapiens, Caco-2, 24 h): 27400 nM
CN(C)c1ccc(/C=C/c2ccc3ccccc3[n+]2C)cc1.[I-] [PB1]	1200 nM	2 µg/mL	4.80 µM	16 µg/mL	38.43 µM	32 µg/mL	76.87 µM	32 µg/mL	76.87 µM	4 µg/mL	9.61 µM	128 µg/mL	307.47 µM	2 µg/mL	4.80 µM	> 128 µg/mL	> 307.47 µM	> 128 µg/mL	> 307.47 µM	32 µg/mL	MIC [3]: > 128 µg/mL; MIC ([3]; value in brackets): > 307.47 µM; MIC (S.aureus Mu50-VISA; value in brackets): 76.87 µM
C[n+]1c(/C=C/c2ccc(-c3ccccc3)s2)ccc2ccccc21.[I-] [PB3]	871 nM	2 µg/mL	4.39 µM	16 µg/mL	35.14 µM	32 µg/mL	70.28 µM	32 µg/mL	70.28 µM	4 µg/mL	8.78 µM	64 µg/mL	140.55 µM	8 µg/mL	17.57 µM	> 128 µg/mL	> 281.10 µM	> 128 µg/mL	281.10 µM	32 µg/mL	MIC (S.aureus Mu50-VISA; value in brackets): 70.28 µM
